Test system: 485176-168-R4-J1-PDC complex spheroid growth
Assay: Anticancer human tumor 485176-168-R4-J1-PDC patient-derived pancreatic adenocarcinoma cell line growth inhibition [RAS]
Conditions: for IC50: curve of first compound; for viability, T/C: stronger effect = lower value; active means viability on the fitted dose curve at most 10% of control; inactive means the rest
Summary of the method: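 Tumour cells grown as complex spheroids with HUVEC endothelial cells and mesenchymal stem cells, treated with RAS pathway inhibitor combinations. Each agent spans half-log steps from near clinical Cmax, or 10 microM where Cmax is unknown.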

[1] = second compound 0.00316 µM, first compound 0.0316 µM
[2] = second compound 0.00316 µM, first compound 0.1 µM
[3] = second compound 0.00316 µM, first compound 0.316 µM
[4] = second compound 0.00316 µM, first compound 1 µM
[5] = second compound 0.01 µM, first compound 0.0316 µM
[6] = second compound 0.01 µM, first compound 0.1 µM
[7] = second compound 0.01 µM, first compound 0.316 µM
[8] = second compound 0.01 µM, first compound 1 µM
[9] = second compound 0.0316 µM, first compound 0.0316 µM
[10] = second compound 0.0316 µM, first compound 0.1 µM
[11] = second compound 0.0316 µM, first compound 0.316 µM
[12] = second compound 0.0316 µM, first compound 1 µM
[13] = second compound 0.1 µM, first compound 0.0316 µM
[14] = second compound 0.1 µM, first compound 0.1 µM
[15] = second compound 0.1 µM, first compound 0.316 µM
[16] = second compound 0.1 µM, first compound 1 µM
[17] = second compound 0.316 µM, first compound 0.0316 µM
[18] = second compound 0.316 µM, first compound 0.1 µM
[19] = second compound 0.316 µM, first compound 0.316 µM
[20] = second compound 0.316 µM, first compound 1 µM
[21] = second compound 1 µM, first compound 0.0316 µM
[22] = second compound 1 µM, first compound 0.1 µM
[23] = second compound 1 µM, first compound 0.316 µM
[24] = second compound 1 µM, first compound 1 µM
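Further: spheroids exposed to compounds for seven days before readout.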
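Wherever viability, T/C is given: luminescence viability expressed relative to DMSO vehicle wells set as 100%.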

CCC(CC)c1cc(NC2CCC(N)C2)n2nccc2n1 (centres undefined) + C=CC(=O)N1CCN(c2nc(OCC3CCCN3C)nc3c(F)c(-c4nc(N)cc(C)c4C(F)(F)F)c(Cl)cc23)C(C)C1
1450 nM: IC50 (second compound 0.01 µM)
1540 nM: IC50 (second compound 0.00316 µM)
1680 nM: IC50 (second compound 0.1 µM)
active: viability, T/C (second compound 0.00316 µM, first compound 3.16 µM) 3.09% | viability, T/C (second compound 0.00316 µM, first compound 10 µM) 0.53% | viability, T/C (second compound 0.01 µM, first compound 3.16 µM) 3.14% | viability, T/C (second compound 0.01 µM, first compound 10 µM) 0.53% | viability, T/C (second compound 0.0316 µM, first compound 3.16 µM) 2.99% | viability, T/C (second compound 0.0316 µM, first compound 10 µM) 0.57% | viability, T/C (second compound 0.1 µM, first compound 3.16 µM) 3.12% | viability, T/C (second compound 0.1 µM, first compound 10 µM) 0.5% | viability, T/C (second compound 0.316 µM, first compound 3.16 µM) 3.3% | viability, T/C (second compound 0.316 µM, first compound 10 µM) 0.53% | viability, T/C (second compound 1 µM, first compound 3.16 µM) 2.65% | viability, T/C (second compound 1 µM, first compound 10 µM) 0.64%
1510 nM: IC50 (second compound 0.316 µM)
inactive: viability, T/C [1] 103% | viability, T/C [2] 101% | viability, T/C [3] 102% | viability, T/C [4] 78.5% | viability, T/C [5] 111% | viability, T/C [6] 98.3% | viability, T/C [7] 77.1% | viability, T/C [8] 72.9% | viability, T/C [9] 101% | viability, T/C [10] 103% | viability, T/C [11] 103% | viability, T/C [12] 72.9% | viability, T/C [13] 97.7% | viability, T/C [14] 104% | viability, T/C [15] 93.3% | viability, T/C [16] 88.8% | viability, T/C [17] 87.8% | viability, T/C [18] 93.5% | viability, T/C [19] 95.3% | viability, T/C [20] 76.2% | viability, T/C [21] 94.8% | viability, T/C [22] 110% | viability, T/C [23] 89.6% | viability, T/C [24] 73.3%
1460 nM: IC50 (second compound 0.0316 µM) | IC50 (second compound 1 µM)

CCN1CCN(Cc2ccc(Nc3ncc(F)c(-c4cc(F)c5nc(C)n(C(C)C)c5c4)n3)nc2)CC1 + C=CC(=O)N1CCN(c2nc(OCC3CCCN3C)nc3c(F)c(-c4nc(N)cc(C)c4C(F)(F)F)c(Cl)cc23)C(C)C1
> 1000 nM: IC50 (second compound 0.00316 µM) | IC50 (second compound 0.01 µM) | IC50 (second compound 0.0316 µM) | IC50 (second compound 0.1 µM) | IC50 (second compound 0.316 µM) | IC50 (second compound 1 µM)
inactive: viability, T/C (second compound 0.00316 µM, first compound 0.00316 µM) 102% | viability, T/C (second compound 0.00316 µM, first compound 0.01 µM) 92.7% | viability, T/C [1] 107% | viability, T/C [2] 88.7% | viability, T/C [3] 69.1% | viability, T/C [4] 59.7% | viability, T/C (second compound 0.01 µM, first compound 0.00316 µM) 108% | viability, T/C (second compound 0.01 µM, first compound 0.01 µM) 90.1% | viability, T/C [5] 108% | viability, T/C [6] 80.5% | viability, T/C [7] 80.2% | viability, T/C [8] 77.3% | viability, T/C (second compound 0.0316 µM, first compound 0.00316 µM) 101% | viability, T/C (second compound 0.0316 µM, first compound 0.01 µM) 89.8% | viability, T/C [9] 88.2% | viability, T/C [10] 80.5% | viability, T/C [11] 95.8% | viability, T/C [12] 53.9% | viability, T/C (second compound 0.1 µM, first compound 0.00316 µM) 116% | viability, T/C (second compound 0.1 µM, first compound 0.01 µM) 102% | viability, T/C [13] 89% | viability, T/C [14] 93.5% | viability, T/C [15] 83.7% | viability, T/C [16] 68.1% | viability, T/C (second compound 0.316 µM, first compound 0.00316 µM) 107% | viability, T/C (second compound 0.316 µM, first compound 0.01 µM) 108% | viability, T/C [17] 77.5% | viability, T/C [18] 92% | viability, T/C [19] 75% | viability, T/C [20] 60.1% | viability, T/C (second compound 1 µM, first compound 0.00316 µM) 97.1% | viability, T/C (second compound 1 µM, first compound 0.01 µM) 92.6% | viability, T/C [21] 111% | viability, T/C [22] 87% | viability, T/C [23] 83.9% | viability, T/C [24] 60%
